Publication PMC10860144, “Exploring the Dispersion and Electrostatic Components in Arene–Arene Interactions between Ligands and G4 DNA to Develop G4-Ligands” (Journal of Medicinal Chemistry, 2024)
In brackets after ≈: the same amount, converted by molar mass. Several values for one entry are separate records, joined by “and”; a condition that tells them apart may be missing. Equal values may be shown once.

Legend:
[1] = Intrinsic clearance in rat hepatocytes; type: in vitro ADME
Protocol: (§1) All compounds (2–11, 25–29) were screened for their logD and solubility at pH 7.4 and for their intrinsic clearance in rat hepatocytes and human microsomes (Table S2). […] Replacing the basic amine side chain to a methyl substituent in the quinazolines (25–29) still retained good solubility (134 to over 1000 μM) but increased clearance in both rat hepatocytes and human microsomes. The logD was low for compounds with a basic amine side chain (2–11) and increased slightly when the amine was replaced with a methyl (25–29). As expected, additional substituents also affected the logD with the chloro-substituents increasing logD the most.
(§2) a Intrinsic clearance in rat hepatocytes ((μL/min)/10^6 cells).b Intrinsic clearance in human microsomes (μL/min/mg). […]

[2] = Intrinsic clearance in human microsomes; type: in vitro ADME; settings: read-out: Human mics: intrinsic clearance in human microsomes
Protocol: as §1, §2

logD at pH 7.4 = type: physicochemical
Protocol: (§3) Physicochemical properties
(§4) The Physicochemical profiling (LogD, Solubility, Caco-2 cell permeability) was performed as previously
(§5) described.8 Cell viability was performed as described below.
(§6) Table S2. Pharmacokinetic Properties
(§7) Compound Structure logD, Solubility, Rat hepsa Human mics b

Solubility at pH 7.4 = type: physicochemical
Protocol: as §3, §4, §5, §6, §7

[3] = tested on: G4 structure on DNA template (PEPu24T); assay: Taq polymerase stop (primer extension) assay, G4 template; type: biochemical; settings: compound 0.24 μM; compared to DMSO control
Description: To challenge all the synthesized compounds (2–11 and 25–29) in a more intricate context, we conducted a Taq polymerase stop assay to evaluate their capacity to impede DNA synthesis through G4 stabilization. In this assay, we compared the progress of the Taq DNA polymerase along two distinct DNA templates: one with a G4 structure (Figure 5) and another serving as a non-G4 control (Figure S21). If an external species (e.g., G4 ligand) binds and stabilizes the G4 structure, the polymerase will be partially halted. The extent of this DNA polymerase stalling is dependent on the ability of the compound to stabilize the G4 on the DNA template. The increased G4 stabilization can be detected as a reduction in the amount of newly synthesized DNA that has reached the end of the DNA template (full-length/end-product). Analysis of these shorter terminated DNA products will give information about the precise location of the DNA polymerase stalling with a single nucleotide resolution. If the ligand imposes little to no stabilization or binding, the G4 is readily resolved by the DNA polymerase, and no difference in the amount of DNA end-product can therefore be expected upon the addition of the compound.
Templates for the primer extension assay were created by annealing 25 nt TET labeled primer (1 μM final concentration) to either PEPu24T or a mutated sequence not forming a G4, PEPu24T mut, (1.25 μM final concentration) in 100 mM KCl by heating to 95 °C for 5 min and slowly cooling to room temperature. […] Compounds were added in the indicated concentration and incubated on ice for 10 min before starting the reaction by adding dNTPs (100 μM final concentration) to the reaction and transferring it to 37 °C. Reactions were stopped after 15 min by addition of 10 μL of formamide loading buffer (0.5% SDS, 25 mM EDTA, 95% v/v formamide and xylene-cyanol). Samples were then loaded on a 12% polyacrylamide gel containing 7 M urea and 25% formamide and imaged using an Amersham Typhoon. The images were quantified using ImageJ 1.53e software, and the percentage of full-length product compared to a sample without compound was calculated.
Templates for the primer extension assay were created by annealing 25nt TET labelled primer (1 µM final concentration) to either PEPu24T or a mutated sequence not forming a G4, PEPu24T mut, (1.25 µM final concentration) in 100 mM KCl by heating to 95 °C for 5 min and slowly cooling to room temperature. The reaction mixture (10 µl) contained 1X Taq Buffer with KCl (10 mM Tris-HCl pH 8.8, 50 mM KCl, detergent), 25 mM MgCl2, […]
[…] Compounds were added in the indicated concentration and incubated on ice for 10 min before starting the reaction by adding dNTPs (100 µM final concentration) to the reaction and transferring it to 37 °C. Reactions were stopped after 15 min by addition of 10 µl of formamide loading buffer (0,5% SDS, 25 mM EDTA, 95% v/v formamide and xylene-cyanol). Samples were then loaded on a 12% polyacrylamide gel containing 7 M urea and 25% formamide and imaged using an Amersham™ Typhoon™.
The images were quantified using ImageJ 1.53e software and the percentage of full-length product compared to a sample without compound was calculated. […]

Pu24T c-MYC G4 structure = assay: Kd for binding to the Pu24T c-MYC G4 structure (supplementary CSV); design: species or system human
Protocol: (§8) 5′-Cy5 labeled G4 DNAs for this study were purchased from Eurofins Genomics. Stock solutions were prepared in water at 100 μM concentration. The sequences used are listed in Supporting Information Table S1. The G4 DNA sequences were folded in KCl buffer (10 mM phosphate, 100 mM KCl, pH 7.4) by heating at 95 °C for 5 min and then cooling to room temperature. All the experiments were performed in 10 mM phosphate pH 7.4, 100 mM KCl, and 0.05% Tween20. The labeled DNA concentration is held constant at 25 nM, and ligand concentration is varied depending on ligands Kd (16 1:3 dilutions). The samples were loaded into standard MST graded glass capillaries and initial fluorescence intensity of the capillary was measured using Monolith NT.115 (Nano Temper, Germany) with 20% LED power. The change in fluorescence with ligand’s concentrations were plotted in Excel and fitted through nonlinear equation to obtain the binding constants.
The Supporting Information is available free of charge at https://pubs.acs.org/doi/10.1021/acs.jmedchem.3c02127. • Experimental procedures and data; assay data, computational results, and all cell data; NMR (^1H and ^13C) spectra for all compounds (with the exception of a few intermediates); and HPLC UV traces for the final compounds (PDF) • Molecular formula strings and Kd values for binding to the Pu24T c-MYC G4 structure (CSV)

c-MYC Pu22 G4 DNA = assay: Microscale thermophoresis (MST), c-MYC Pu22 G4 DNA; type: binding, human; settings: Cy5-labeled c-MYC Pu22 G4 DNA 25 nM; pH 7.4, 100 mM KCl; read-out: apparent Kd (MST)
Protocol: To evaluate the apparent binding affinities (Kd) for the compound series, we next used microscale thermophoresis (MST) with fluorescently labeled c-MYC Pu22 G4 DNA (Table S1). Overall, the measured MST binding results for compounds 2–11 corresponded well with the results from the FRET assay (Figures 2B and S3).
as §8, with “constants. […]” for “constants.”
Microscale Thermophoresis (MST)
5'- Cy5 labelled G4 DNAs for this study were purchased from Eurofins Genomics. Stock solutions were prepared in water at […] concentration. The sequences used are listed in supplementary Table S1. The G4 DNA sequences were folded in KCl buffer (10 mM phosphate, 100 mM KCl, pH 7.4) by heating at 95 °C for 5 min and then cooling to room temperature. All the experiments were performed in 10 mM phosphate pH 7.4, 100 mM KCl, 0.05% Tween20. The labelled DNA concentration is held constant at 25 nM and ligand concentration is varied depending on ligands Kd (sixteen 1:3 dilutions). The samples were loaded into standard MST graded glass capillaries and initial fluorescence intensity of the capillary were measured using Monolith NT.115 (Nano Temper, Germany) with 20% LED power. The change in fluorescence with ligand's concentrations were plotted in Excel and fitted through non-linear equation to obtain the binding constants.
(1 picture or pasted object on this page, not shown here)

Row | Rat heps: intrinsic clearance in rat hepatocytes [1] | microsomal CLint [2] | logD (logD at pH 7.4) | solubility (Solubility at pH 7.4) | full-length DNA product [3] | Kd (Pu24T c-MYC G4 structure) | Kd (c-MYC Pu22 G4 DNA) | Compound
1 | 4 (μL/min)/106 cells | < 3 µL/min/mg | 0 | 858 µM (≈ 302 µg/mL) | ~45% | 0.15 ± 0.01 µM | 0.15 µM | Cc1cc(NCCCN(C)C)nc(Nc2nc(C)c3ccccc3n2)n1 [Compound 3, N4-(3-(Dimethylamino)propyl)-6-methyl-N2-(4-methylquinazolin-2-yl)pyrimidine-2,4-diamine]
2 | < 1 (μL/min)/106 cells | < 3 µL/min/mg | 0.4 | > 1000 µM | about 30% | 0.1 ± 0.01 µM | 0.1 µM | Cc1ccc2nc(Nc3nc(C)cc(NCCCN(C)C)n3)nc(C)c2c1 [Compound 4, N4-(3-(Dimethylamino)propyl)-N2-(4,6-dimethylquinazolin-2-yl)-6-methylpyrimidine-2,4-diamine]
3 | < 1 (μL/min)/106 cells | < 3 µL/min/mg | 0.1 | > 1000 µM | about 30% | 0.09 ± 0.01 µM | 0.09 µM | COc1ccc2nc(Nc3nc(C)cc(NCCCN(C)C)n3)nc(C)c2c1 [Compound 6, N4-(3-(Dimethylamino)propyl)-N2-(6-methoxy-4-methylquinazolin-2-yl)-6-methylpyrimidine-2,4-diamine]
4 | 1 (μL/min)/106 cells | < 3 µL/min/mg | 0.9 | 990 µM (≈ 382 µg/mL) | about 30% | 0.17 ± 0.02 µM | 0.17 µM | Cc1cc(NCCCN(C)C)nc(Nc2nc(C)c3cc(Cl)ccc3n2)n1 [Compound 7, N2-(6-Chloro-4-methylquinazolin-2-yl)-N4-(3-(dimethylamino)propyl)-6-methylpyrimidine-2,4-diamine]
5 | 17 (μL/min)/106 cells | < 3 µL/min/mg | 0.5 | 871 µM (≈ 306 µg/mL) | – | > 10 µM | > 10 µM | Cc1cc(NCCCN(C)C)nc(Nc2nc3ccccc3nc2C)n1 [Compound 9, N4-(3-(Dimethylamino)propyl)-6-methyl-N2-(3-methylquinoxalin-2-yl)pyrimidine-2,4-diamine]
6 | 19 (μL/min)/106 cells | < 3 µL/min/mg | 1.4 | 838 µM (≈ 318 µg/mL) | – | 2.3 ± 0.5 µM | 2.3 µM and 2.26 µM | Cc1cc(NCCCN(C)C)nc(Nc2nc3cc(C)c(C)cc3nc2C)n1 [Compound 10, N4-(3-(Dimethylamino)propyl)-6-methyl-N2-(3,6,7-trimethylquinoxalin-2-yl)pyrimidine-2,4-diamine]
7 | 6 (μL/min)/106 cells | < 3 µL/min/mg | 2.3 | 646 µM (≈ 272 µg/mL) | – | 3.9 ± 0.7 µM | 3.9 µM and 3.85 µM | Cc1cc(NCCCN(C)C)nc(Nc2nc3cc(Cl)c(Cl)cc3nc2C)n1 [Compound 11, N2-(6,7-Dichloro-3-methylquinoxalin-2-yl)-N4-(3-(dimethylamino)propyl)-6-methylpyrimidine-2,4-diamine]
8 | 17 (μL/min)/106 cells | 71 µL/min/mg | 1.8 | > 1000 µM | – | > 15 µM | > 15 µM | Cc1cc(C)nc(Nc2nc(C)c3ccccc3n2)n1 [Compound 25, N-(4,6-Dimethylpyrimidin-2-yl)-4-methylquinazolin-2-amine]
9 | 20 (μL/min)/106 cells | 84 µL/min/mg | 2.2 | 951 µM (≈ 266 µg/mL) | – | 3.3 ± 0.3 µM | 3.3 µM | Cc1ccc2nc(Nc3nc(C)cc(C)n3)nc(C)c2c1 [Compound 26, N-(4,6-Dimethylpyrimidin-2-yl)-4,6-dimethylquinazolin-2-amine]
10 | 34 (μL/min)/106 cells | 22 µL/min/mg | 1.9 | 271 µM (≈ 80 µg/mL) | – | 3.6 ± 0.7 µM | 3.6 µM | COc1ccc2nc(Nc3nc(C)cc(C)n3)nc(C)c2c1 [Compound 28, N-(4,6-Dimethylpyrimidin-2-yl)-6-methoxy-4-methylquinazolin-2-amine]
11 | 9 (μL/min)/106 cells | 56 µL/min/mg | 2.4 | 134 µM (≈ 40.2 µg/mL) | – | > 15 µM | > 15 µM | Cc1cc(C)nc(Nc2nc(C)c3cc(Cl)ccc3n2)n1 [Compound 29, 6-Chloro-N-(4,6-dimethylpyrimidin-2-yl)-4-methylquinazolin-2-amine]
